SMILES strings stand for the structures.

Activity and inhibition data for two compounds are collected here from ChEMBL document CHEMBL5608167, “Nanomaterials-based advanced systems for photothermal / photodynamic therapy of oral cancer” (2024).

One assay concerns HeLa. In words: Antitumor activity against human HeLa cells xenografted in mouse model assessed as tumor growth inhibition at 20 mg/kg treated for 10 days relative to control. It counts as functional. The arrangement: scale not given: the % may be the effect or the level left. The conditions noted are these: time 10 day.
The subject of a further assay is CAL-27. The assay can be described thus: Inhibition of cell proliferation in human CAL-27 cells at 1uM incubated for 72 hrs by MTT assay relative to control. It counts as functional.

In the case of `CCOCCNC(=O)/C(C)=C\C[C@@]12OC(C)(C)[C@@H]3C[C@@H](C=C4C(=O)c5c(O)c(C/C=C(\C)CCC=C(C)C)c(O)c(CC=C(C)C)c5O[C@]431)C2=O`, in the assay on HeLa, the Activity is reported as 70%.
The compound `NCC(=O)CCC(=O)O` [AMINOLEVULINIC ACID] came in with an inhibition at 1 µM in the assay with CAL-27 of 75.4%.
